# Assay: recombinant UMI read abundance after kanamycin selection (control-corrected) (log10(CPM+1)); higher = more efficient recombination; extreme values may be limits of the assay; sequences stand for … in AGTGCAGAGAAAATCGGCCAGTTTTCTCTGCCTGCAGTCCGCATGCCGTGGGACCCCTTGGGTTCTAACCTGTTGCCTAGATTTATGCAGCGGACTGCCTTTCTCCCAAAGTGATAAACCGG…AGGTTGGTTTCACT; site = the 11-nt donor
# In short: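 Counts of recombinant UMIs were reported as log10(CPM+1). Before that, they were converted to CPM, averaged over replicates and scaled using control-derived factors. They came from PCR across the donor–target junction after Escherichia coli carrying the pair library and target plasmid was plated on IPTG (0.07 mM) plus kanamycin, or unselected, in two replicates each.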
# 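Further: IS621 bridge recombinase in Escherichia coli cells against a fixed T5 target plasmid.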
row,Sequence,recombinant UMI read abundance (log10)
1,CGCGGAGCATGGACCGGTTTTCCCGGTAATCCGTATTTGGT (site CGCGGAGCTAC),1.14
2,CGCGTTCCATGGACCGGTTTTCCCGGTAATCCGTATTTGGA (site CGCGTTCCTTC),0
3,CGCTCCTCATGGACCGGTTTTCCCGGTAATCCGTATTTGCT (site CGATCATCTAG),0
4,CGCTCCTCATGGACCGGTTTTCCCGGTAATCCGTATTTGCT (site CGCTCCTCTAG),3.07
5,CGCTCCTCATGGACCGGTTTTCCCGGTAATCCGTATTTGTG (site CGCTCCTCTCA),0.976
6,CGCTTAGCATGGACCGGTTTTCCCGGTAATCCGTATTTGTA (site CGCTTAGCTTA),1.88
7,CGCTTTCCATGGACCGGTTTTCCCGGTAATCCGTATTTGGT (site CGCTTTCCTAC),0
8,CGCTTTGCATGGACCGGTTTTCCCGGTAATCCGTATTTGGT (site CGCTTTGCTAC),1.08
9,CGGAAACCATGGACCGGTTTTCCCGGTAATCCGTATTTGAT (site CGGAAACCTAT),0
10,CGGAAACCATGGACCGGTTTTCCCGGTAATCCGTATTTGAT (site CGGCAACCTAT),0.00975
11,CGGAAACCATGGACCGGTTTTCCCGGTAATCCGTATTTGAT (site CGGGAACCTAT),0
12,CGGAAACCATGGACCGGTTTTCCCGGTAATCCGTATTTGAT (site CGGTAACCTAT),0
13,CGGAAACCATGGACCGGTTTTCCCGGTAATCCGTATTTGTA (site CGGAAACCTTA),0
14,CGGAAACCATGGACCGGTTTTCCCGGTAATCCGTATTTGTA (site CGGAATCCTAA),0
15,CGGAAACCATGGACCGGTTTTCCCGGTAATCCGTATTTGTT (site CGGAAACCTAA),0
16,CGGAAACCATGGACCGGTTTTCCCGGTAATCCGTATTTGTT (site CGGAACCCTAA),0.00618
17,CGGAAACCATGGACCGGTTTTCCCGGTAATCCGTATTTGTT (site CGGAAGCCTAA),0.00793
18,CGGAAACCATGGACCGGTTTTCCCGGTAATCCGTATTTGTT (site CGGAATCCTAA),0
19,CGGAAATCATGGACCGGTTTTCCCGGTAATCCGTATTTGTT (site CGGAAATCTAA),2.29
20,CGGAAATCATGGACCGGTTTTCCCGGTAATCCGTATTTGTT (site CGGAATCCTAA),0
21,CGGAACCCATGGACCGGTTTTCCCGGTAATCCGTATTTGTT (site CGGAAACCTAA),0.0541
22,CGGAACCCATGGACCGGTTTTCCCGGTAATCCGTATTTGTT (site CGGAACCCTAA),0.964
23,CGGAACCCATGGACCGGTTTTCCCGGTAATCCGTATTTGTT (site CGGAAGCCTAA),0.00321
24,CGGAACCCATGGACCGGTTTTCCCGGTAATCCGTATTTGTT (site CGGAATCCTAA),0.208
25,CGGAAGACATGGACCGGTTTTCCCGGTAATCCGTATTTGAA (site AGGAAGACTTG),0

row,Sequence,recombinant UMI read abundance (log10)
1,CGGAAGACATGGACCGGTTTTCCCGGTAATCCGTATTTGAA (site CGGAAGACTTT),2.24
2,CGGAAGCCATGGACCGGTTTTCCCGGTAATCCGTATTTGTT (site CGGAAACCTAA),0
3,CGGAAGCCATGGACCGGTTTTCCCGGTAATCCGTATTTGTT (site CGGAACCCTAA),0.00486
4,CGGAAGCCATGGACCGGTTTTCCCGGTAATCCGTATTTGTT (site CGGAAGCCTAA),0.218
5,CGGAAGCCATGGACCGGTTTTCCCGGTAATCCGTATTTGTT (site CGGAATCCTAA),0
6,CGGAAGTCATGGACCGGTTTTCCCGGTAATCCGTATTTGCC (site CGGAAGTCTGG),2.88
7,CGGAAGTCATGGACCGGTTTTCCCGGTAATCCGTATTTGCC (site CGGCAGTCTGG),0
8,CGGAAGTCATGGACCGGTTTTCCCGGTAATCCGTATTTGCC (site CGGGAGTCTGG),0.686
9,CGGAAGTCATGGACCGGTTTTCCCGGTAATCCGTATTTGCC (site CGGTAGTCTGG),1.08
10,CGGAATACATGGACCGGTTTTCCCGGTAATCCGTATTTGAT (site CGGAATACTAT),2.16
11,CGGAATACATGGACCGGTTTTCCCGGTAATCCGTATTTGAT (site CGGAATCCTAA),0
12,CGGAATCCATGGACCGGTTTTCCCGGTAATCCGTATTTGCT (site CGGAATCCTAA),0.106
13,CGGAATCCATGGACCGGTTTTCCCGGTAATCCGTATTTGCT (site CGGAATCCTAC),0
14,CGGAATCCATGGACCGGTTTTCCCGGTAATCCGTATTTGCT (site CGGAATCCTAG),2.08
15,CGGAATCCATGGACCGGTTTTCCCGGTAATCCGTATTTGCT (site CGGAATCCTAT),0.767
16,CGGAATCCATGGACCGGTTTTCCCGGTAATCCGTATTTGTC (site CGGAATCCTAA),0
17,CGGAATCCATGGACCGGTTTTCCCGGTAATCCGTATTTGTC (site CGGAATCCTCA),0.00507
18,CGGAATCCATGGACCGGTTTTCCCGGTAATCCGTATTTGTC (site CGGAATCCTGA),2.06
19,CGGAATCCATGGACCGGTTTTCCCGGTAATCCGTATTTGTC (site CGGAATCCTTA),0
20,CGGAATGCATGGACCGGTTTTCCCGGTAATCCGTATTTGTT (site CGGAATACTAA),2
21,CGGAATGCATGGACCGGTTTTCCCGGTAATCCGTATTTGTT (site CGGAATCCTAA),0.00325
22,CGGAATGCATGGACCGGTTTTCCCGGTAATCCGTATTTGTT (site CGGAATGCTAA),2.84
23,CGGAATGCATGGACCGGTTTTCCCGGTAATCCGTATTTGTT (site CGGAATTCTAA),0
24,CGGACACCATGGACCGGTTTTCCCGGTAATCCGTATTTGCT (site CGGACAACTAG),0
25,CGGACACCATGGACCGGTTTTCCCGGTAATCCGTATTTGCT (site CGGACACCTAG),0

row,Sequence,recombinant UMI read abundance (log10)
1,CGGACACCATGGACCGGTTTTCCCGGTAATCCGTATTTGCT (site CGGACAGCTAG),0.00902
2,CGGACACCATGGACCGGTTTTCCCGGTAATCCGTATTTGCT (site CGGACATCTAG),0
3,CGGACAGCATGGACCGGTTTTCCCGGTAATCCGTATTTGCT (site CGGACAACTAG),0.393
4,CGGACAGCATGGACCGGTTTTCCCGGTAATCCGTATTTGCT (site CGGACACCTAG),0
5,CGGACAGCATGGACCGGTTTTCCCGGTAATCCGTATTTGCT (site CGGACAGCTAG),2.07
6,CGGACAGCATGGACCGGTTTTCCCGGTAATCCGTATTTGCT (site CGGACATCTAG),0
7,CGGACATCATGGACCGGTTTTCCCGGTAATCCGTATTTGTT (site CGGACATCTAA),2.07
8,CGGACATCATGGACCGGTTTTCCCGGTAATCCGTATTTGTT (site CGGACATCTAC),0.00517
9,CGGACATCATGGACCGGTTTTCCCGGTAATCCGTATTTGTT (site CGGACATCTAG),0
10,CGGACATCATGGACCGGTTTTCCCGGTAATCCGTATTTGTT (site CGGACATCTAT),0
11,CGGACTCCATGGACCGGTTTTCCCGGTAATCCGTATTTGTG (site CGGAATCCTAA),0.00428
12,CGGACTCCATGGACCGGTTTTCCCGGTAATCCGTATTTGTG (site CGGACTCCTCA),0.0192
13,CGGAGATCATGGACCGGTTTTCCCGGTAATCCGTATTTGCT (site CGGAAATCTAG),1.27
14,CGGAGATCATGGACCGGTTTTCCCGGTAATCCGTATTTGCT (site CGGACATCTAG),0
15,CGGAGATCATGGACCGGTTTTCCCGGTAATCCGTATTTGCT (site CGGAGATCTAG),3.03
16,CGGAGATCATGGACCGGTTTTCCCGGTAATCCGTATTTGCT (site CGGATATCTAG),0
17,CGGAGGACATGGACCGGTTTTCCCGGTAATCCGTATTTGCC (site CGGAGGACTGG),2.76
18,CGGAGTCCATGGACCGGTTTTCCCGGTAATCCGTATTTGTC (site CGGAATCCTAA),0
19,CGGAGTCCATGGACCGGTTTTCCCGGTAATCCGTATTTGTC (site CGGAGTCCTGA),1.34
20,CGGATGACATGGACCGGTTTTCCCGGTAATCCGTATTTGAT (site CGGATGACTAT),2.14
21,CGGATTCCATGGACCGGTTTTCCCGGTAATCCGTATTTGTA (site CGGAATCCTAA),0.0133
22,CGGATTCCATGGACCGGTTTTCCCGGTAATCCGTATTTGTA (site CGGATTCCTTA),0
23,CGGATTTCATGGACCGGTTTTCCCGGTAATCCGTATTTGTT (site CGGAATCCTAA),0
24,CGGATTTCATGGACCGGTTTTCCCGGTAATCCGTATTTGTT (site CGGATTTCTAA),0.891
25,CGGCAACCATGGACCGGTTTTCCCGGTAATCCGTATTTGAT (site CGGAAACCTAT),0

# — the supplement of paper PMC11208160
